Key:
[1] = compound: C1CC(C1)(C(=O)[O-])C(=O)[O-].N.N.[Pt+2] [Carboplatin]; details: max 10 µM
How it was run: (§1)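 Plates with 1536 wells received cancer cell lines in 7.5 μl of DMEM/F12 or RPMI containing 10% FBS. After 24 hours at 37°C and 5% CO2, cells were dosed for 72 hours with final DMSO typically 0.2%, and viability was read by CellTiter-Glo 2.0 luminescence scaled between blank-well and DMSO-well means. The single-agent IC50 was taken from a logistic fit of the dose responses made with a non-linear mixed effects model, that logistic curve having two parameters.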

[2] = compound: C1CN(CCC1(C(=O)N[C@@H](CCO)C2=CC=C(C=C2)Cl)N)C3=NC=NC4=C3C=CN4 [AZD5363]; details: max 10 µM
How it was run: as §1

[3] = compound: C=CCn1c(=O)c2cnc(Nc3ccc(N4CCN(C)CC4)cc3)nc2n1-c1cccc(C(C)(C)O)n1 [AZD1775]; details: max 3 µM
How it was run: as §1

[4] = compound: CC(=O)Nc1cccc(-n2c(=O)n(C3CC3)c(=O)c3c(Nc4ccc(I)cc4F)n(C)c(=O)c(C)c32)c1 [Trametinib]; details: max 1 µM
How it was run: as §1

[5] = compound: CC(=O)O[C@H]1C(=O)[C@@]2(C)[C@H]([C@H](OC(=O)c3ccccc3)[C@]3(O)C[C@H](OC(=O)[C@H](O)[C@@H](NC(=O)c4ccccc4)c4ccccc4)C(C)=C1C3(C)C)[C@]1(OC(C)=O)CO[C@@H]1C[C@@H]2O [Paclitaxel]; details: max 3 µM
How it was run: as §1

[6] = compound: CC(=O)c1c(C)c2cnc(Nc3ccc(N4CCNCC4)cn3)nc2n(C2CCCC2)c1=O [Palbociclib]; details: max 10 µM
How it was run: as §1

[7] = compound: CC(C)n1c(=O)n(C)c2cnc3cc(F)c(-c4ccc(OCCCN5CCCCC5)nc4)cc3c21 [AZD1390]; details: max 0.3 µM
How it was run: as §1

[8] = compound: CC1(C)CCC(CN2CCN(c3ccc(C(=O)NS(=O)(=O)c4ccc(NCC5CCOCC5)c([N+](=O)[O-])c4)c(Oc4cnc5[nH]ccc5c4)c3)CC2)=C(c2ccc(Cl)cc2)C1 [Venetoclax]; details: max 1 µM
How it was run: as §1

[9] = compound: CC1=C(C(=CC=C1)Cl)NC(=O)C2=CN=C(S2)NC3=CC(=NC(=N3)C)N4CCN(CC4)CCO [Dasatinib]; details: max 2 µM
How it was run: as §1

[10] = compound: CC1=CN2[C@@H](C1)C=NC3=CC(=C(C=C3C2=O)OC)OCCCCCOC4=C(C=C5C(=C4)N=C[C@@H]6CC(=CN6C5=O)C)OC [SG3199]; details: max 0.001 µM
How it was run: as §1

[11] = compound: CCN(CCO)CCCOc1ccc2c(Nc3cc(CC(=O)Nc4cccc(F)c4)[nH]n3)ncnc2c1 [AZD2811]; details: max 1 µM
How it was run: as §1

[12] = compound: CCc1c2c(nc3ccc(O)cc13)-c1cc3c(c(=O)n1C2)COC(=O)[C@]3(O)CC [SN-38]; details: max 0.3 µM
How it was run: as §1

[13] = compound: CN(C)CCCOc1ccc(-c2ccc3ncc4c(c3c2)n(C2CCOCC2)c(=O)n4C)cn1 [AZD0156]; details: max 3 µM
How it was run: as §1

[14] = compound: CN(CC[C@H](CSC1=CC=CC=C1)NC2=C(C=C(C=C2)S(=O)(=O)NC(=O)C3=CC=C(C=C3)N4CCC(CC4)[C@H](C5=CC=CC=C5C6=CC=C(C=C6)Cl)O)S(=O)(=O)C(F)(F)F)CCO [AZD4320]; details: max 1 µM
How it was run: as §1

[15] = compound: COc1cc(Nc2ncc3c(n2)-c2ccc(Cl)cc2C(c2c(F)cccc2OC)=NC3)ccc1C(=O)O [Alisertib]; details: max 10 µM
How it was run: as §1

[16] = compound: COc1cc([C@@H]2c3cc4c(cc3[C@@H](O[C@@H]3O[C@@H]5CO[C@@H](C)O[C@H]5[C@H](O)[C@H]3O)[C@H]3COC(=O)[C@H]23)OCO4)cc(OC)c1O [Etoposide]; details: max 10 µM
How it was run: as §1

[17] = compound: COc1cc2ncnc(Nc3ccc(F)c(Cl)c3)c2cc1OCCCN1CCOCC1 [Gefitinib]; details: max 10 µM
How it was run: as §1

[18] = compound: COc1cccc(OCCCN)c1-c1cc(Nc2cnc(C#N)cn2)n[nH]1 [Prexasertib]; details: max 1 µM
How it was run: as §1

[19] = compound: COc1cccc2c1C(=O)c1c(O)c3c(c(O)c1C2=O)C[C@@](O)(C(=O)CO)C[C@@H]3O[C@H]1C[C@H](N)[C@H](O)[C@H](C)O1 [Doxorubicin]; details: max 1 µM
How it was run: as §1

[20] = compound: COc1nnc2ccc(N3CCC(c4ccc(OCCN5CCN(C)C(=O)[C@H]5C)cc4)CC3)nn12 [AZD5153]; details: max 1 µM
How it was run: as §1

[21] = compound: CS(=O)(=O)CCNCc1ccc(-c2ccc3ncnc(Nc4ccc(OCc5cccc(F)c5)c(Cl)c4)c3c2)o1 [Lapatinib]; details: max 10 µM
How it was run: as §1

[22] = compound: C[C@@H](Nc1cc(F)cc(F)c1)c1cc(C(=O)N(C)C)cc2c(=O)cc(N3CCOCC3)oc12 [AZD8186]; details: max 10 µM
How it was run: as §1

[23] = compound: C[C@@H](Oc1cc(-c2cnn(C3CCNCC3)c2)cnc1N)c1c(Cl)ccc(F)c1Cl [Crizotinib]; details: max 10 µM
How it was run: as §1

[24] = compound: C[C@@H](c1ccc2nccn2c1)n1nnc2ncc(-c3cnn(C)c3)nc21 [Savolitinib]; details: max 1 µM
How it was run: as §1

[25] = compound: C[C@@H]1COCCN1C2=NC(=NC(=C2)C3(CC3)[S@](=N)(=O)C)C4=C5C=CNC5=NC=C4 [AZD6738]; details: max 10 µM
How it was run: as §1

[26] = compound: Cc1c2c(nn1C)CSCc1cc(n(C)n1)CSc1cc(c3ccccc3c1)OCCCc1c(C(=O)O)n(C)c3c-2c(Cl)ccc13 [AZD5991]; details: max 1 µM
How it was run: as §1

[27] = compound: Cc1cc2ncnn2cc1Nc1ncc2c(n1)n(C1CCOCC1)c(=O)n2C [AZD7648]; details: max 10 µM
How it was run: as §1

[28] = compound: Cc1nc(-c2cn3c(n2)-c2ccc(-c4cnn(C(C)(C)C(N)=O)c4)cc2OCC3)n(C(C)C)n1 [Taselisib]; details: max 10 µM
How it was run: as §1

[29] = compound: Cn1cnc2c(F)c(Nc3ccc(Br)cc3Cl)c(C(=O)NOCCO)cc21 [Selumetinib]; details: max 10 µM
How it was run: as §1

[30] = compound: N#Cc1cnc(Nc2cc(NC[C@H]3CNCCO3)c(C(F)(F)F)cn2)cn1 [SRA737]; details: max 10 µM
How it was run: as §1

[31] = compound: NC1(c2ccc(-c3nc4ccn5c(=O)[nH]nc5c4cc3-c3ccccc3)cc2)CCC1 [MK-2206]; details: max 10 µM
How it was run: as §1

[32] = compound: Nc1ccn([C@@H]2O[C@H](CO)[C@@H](O)C2(F)F)c(=O)n1 [Gemcitabine]; details: max 0.3 µM
How it was run: as §1

[33] = compound: O=C(Nc1ccc2[nH]nc(-c3ccncc3)c2c1)[C@@H]1CCN(CC(=O)N2CCN(c3ccc(-c4ncccn4)cc3)CC2)C1; details: max 5 µM
How it was run: as §1

[34] = compound: O=C(c1cc(Cc2n[nH]c(=O)c3ccccc23)ccc1F)N1CCN(C(=O)C2CC2)CC1 [Olaparib]; details: max 10 µM
How it was run: as §1

[35] = compound: O=c1[nH]cc(F)c(=O)[nH]1 [5-Fluorouracil]; details: max 20 µM
How it was run: as §1

In the case of DOV13 (Ovarian Carcinoma), the “IC50, cell viability 72 h” value [1] was greater than 10000 nM, the “IC50, cell viability 72 h” value [2] was greater than 10000 nM and the “IC50, cell viability 72 h” value [3] was 1110 nM. For the same cell line, the “IC50, cell viability 72 h” value [4] was greater than 1000 nM, the “IC50, cell viability 72 h” value [5] was 31.7 nM and the “IC50, cell viability 72 h” value [6] was 2020 nM. For the same cell line, the “IC50, cell viability 72 h” value [7] was greater than 300 nM, the “IC50, cell viability 72 h” value [8] was greater than 1000 nM and the “IC50, cell viability 72 h” value [9] was 165 nM. The “IC50, cell viability 72 h” value [10] was greater than 1 nM, the “IC50, cell viability 72 h” value [11] was 980 nM and the “IC50, cell viability 72 h” value [12] was 9.35 nM. For the same cell line, the “IC50, cell viability 72 h” value [13] was greater than 3000 nM, the “IC50, cell viability 72 h” value [14] was 464 nM and the “IC50, cell viability 72 h” value [15] was 1930 nM. The “IC50, cell viability 72 h” value [16] was 2730 nM, the “IC50, cell viability 72 h” value [17] was greater than 10000 nM and the “IC50, cell viability 72 h” value [18] was 40.7 nM. The “IC50, cell viability 72 h” value [19] was 308 nM, the “IC50, cell viability 72 h” value [20] was 650 nM and the “IC50, cell viability 72 h” value [21] was greater than 10000 nM. The “IC50, cell viability 72 h” value [22] was greater than 10000 nM, the “IC50, cell viability 72 h” value [23] was 7020 nM and the “IC50, cell viability 72 h” value [24] was greater than 1000 nM. For the same cell line, the “IC50, cell viability 72 h” value [25] was 2130 nM, the “IC50, cell viability 72 h” value [26] was greater than 1000 nM and the “IC50, cell viability 72 h” value [27] was greater than 10000 nM. The “IC50, cell viability 72 h” value [28] was 4650 nM, the “IC50, cell viability 72 h” value [29] was greater than 10000 nM and the “IC50, cell viability 72 h” value [30] was greater than 10000 nM. The “IC50, cell viability 72 h” value [31] was greater than 10000 nM, the “IC50, cell viability 72 h” value [32] was 11.8 nM and the “IC50, cell viability 72 h” value [33] was greater than 5000 nM. For the same cell line, the “IC50, cell viability 72 h” value [34] was greater than 10000 nM and the “IC50, cell viability 72 h” value [35] was greater than 20000 nM.
